# “Also recorded” adds a separate entry of the source.
# Key:
# [1] = test system: lipid rafts and fenestrations of LSECs; test: 3D-SIM study of lipid rafts and fenestrations; assay type: cell-based
# Text: Sieve plates containing fenestrations are intercalated between thickened areas of membrane (lipid rafts).
# [2] = test system: isolated LSECs (liver sinusoidal endothelial cells); test: SEM of fenestrations in isolated LSECs from young and old mice after 30 min drug treatment (second Example 7); assay type: cell-based; conditions: for Diameter / Frequency / Porosity: 30 min
# Protocol: 3-4 and 18-24 month old male C57/B16 mice were obtained from the Animal Resource Centre in Perth, Western Australia. Animals were housed at the ANZAC Research Institute animal house on a 12 hour light/dark cycle and provided with ad libitum access to food and water. Mice were not fasted prior to euthanasia by a single intraperitoneal injection with 100 mg/kg ketamine and 10 mg/kg xylazine in saline. The study was approved by the Animal Welfare Committee of the Sydney Local Health District and was performed in accordance with the Australian Code of Practice for the care and use of animals for scientific research (AWC 2016/009). All information provided accords with the ARRIVE guidelines.
# As described previously (Cogger et al. J e52698, 2015 https://dx.doi.org/10.3791/52698), mouse LSEC isolation was performed by perfusion of the liver with collagenase. Non-parenchymal cells were removed by a two-step Percoll gradient and Kupffer cells were removed by selective adherence to plastic. LSECs (seeded at 0.5×10^6 cells/cm2) were cultured (37° C., 5% CO2) in serum free RPMI-1640 for 3.5 hours before use.
# Cells were treated with various agents for 30 minutes to determine effects on fenestrations. All agents were dissolved in serum-free RPMI media. All experiments were performed in triplicate for both young and old mice. Actin was disrupted with 0.5 μg/ml cytochalasin D and lipid rafts were disrupted with 3.6 and 1.8 μg/ml 7-keocholesterol; dosages were selected. […] The serotonergic/phospholipase C pathway was promoted with DOI (0.1 μg/ml) and endothelin receptors were inhibited by bosentan (550, 55 and 5.5 ng/ml) Death receptor 4 was promoted with TRAIL (100, 10. 1, 0.1 and 0.01 ng/ml) and NAD+ was promoted with NMN (5000, 50, 10, 1 and 0.1 μg/ml).
# SEM was performed as previous described (Corbin et al J Biol Chem 274: 13729-13732, 1999.). LSECs were fixed in 2.5% glutaraldehyde in 0.1M sodium cacodylate buffer, osmicated, dehydrated in graded ethanol and hexamethyl disilazane, mounted on stubs, sputter coated with platinum and examined using a JEOL 6380 Scanning Electron Microscope (JEOL Ltd, Japan). Images at 10,000× magnification were collected by a blinded observer and used to measure fenestration diameter and LSEC porosity using Image J (NIH, MD, USA). […] Fenestrations less than 30 nm and gaps more than 300 nm were excluded from analysis. Porosity was defined as the percentage of the cell membrane covered with fenestrations. Frequency was defined at the number of fenestrations per […].
# Individual specifications of analyses are described in figures legends. All data are presented as mean±SD. Experimental design and analysis were performed in accordance with the APS guidelines described in Curran-Everett and Benos DJ. Adv Physiol Educ 31: 295-298, 2007.
# [3] = test system: Intracellular cGMP; test: Cyclic GMP ELISA; assay type: cell-based, mice; conditions: p=0.001
# Protocol: Assays for MTT and cGMP were performed as instructed by the kit. Briefly, MTT assays were performed following drug treatments. Cells were washed with PBS and incubated with RPMI media containing […] MTT solution. Cells were incubated at 37° C. for 4 hrs and lysed with […] solubilisation solution, 30 mins colour development followed and measured at 570 nm using a spectrophotometer. cGMP assays were also performed after drug treatments. Cells were washed with PBS and lysed with 0.1M HCl. Following sample collection the sample was acetylated and prepared with kit reagents. Samples were incubated for 18 hrs at 4° C. before examination at 410 nm with a spectrophotometer.
# [4] = test system: LSEC fenestrations; test: SEM of LSEC fenestrations after drug treatments (Example 2, FIGS. 1-6); assay type: cell-based, mice; conditions: for fenestration porosity: 300 ng/ml; for change in fenestration diameter: Bosentan 0.1 μM, Sildenafil 300 ng/ml, TRAIL 1 μg/ml
# Text: Young and old C57B16 mice (n=3 young mice, age 3-4 and n=3 old mice, 20-24 months) were maintained under full SPF conditions and with ad libitum feeding. The study had the approval of the Sydney South West Area Health Service Animal Welfare Committee. Mice at 20-24 months are senescent. Animals were sacrificed withCO2 and livers immediately perfusion-fixed via a 23G needle inserted into the portal vein. Liver tissue was fixed with1% glutaraldehyde/4% para-formaldehyde in PBS (0.1M sucrose).
# Drug treatments and dosages (shown superimposed on their corresponding image in FIGS. 1, and 2) were performed by incubating liver cells at 37° C., 5% CO2 for 30 mins using RPMI with or without dissolved drug. All images were taken by two blinded researchers using a SEM at 10,000×, scale bars of 1 μm are shown.
# Each data point represents the average±SD of 8 images (as shown in FIGS. 1 and 2), 616-3312 fenestration raw data points were collected per treatment.
# [5] = test system: actin cytoskeleton of LSECs; test: dSTORM imaging of the actin cytoskeleton; assay type: cell-based; conditions: young mice
# Protocol: dSTORM imaging was performed using an in-house microscope. LSECs were prepared for dSTORM by washing twice with PBS and fixation with 4% paraformaldehyde for 30 mins. Then LSECs were washed twice with PBS, permeabilised with Triton-X for 90 secs, blocked with 5% bovine serum albumin for 1 hour, and stained with Alexa Flour phalloidin 488 (1:40) for 20 min prior to imaging. Cells were washed using PBS with 0.1% Tween and placed in OxEA buffer (30) for dSTORM visualisation and image capture. The dSTORM used 488 and 647 nm excitation from diode-pumped lasers (Coherent Inc, CA, USA). Excitation was delivered via a 1.49NA 60× oil-immersion TIRF objective (Olympus Australia, AUS). Fluorescence was captured on two separate sCMOS cameras (Imaging Development Systems GmbH, Germany). Data was collected for up to 40,000 images at around 75 fps. 5-8 whole cell images were collected by a blinded observer for each treatment dosage and processed using rapidSTORM open source software (Wolter et al. Nat Methods 9: 1040, 2012.). Each image was examined for all sieve plates and actin structures. Densitometry measurements were performed using 5-8 dSTORM images with data analysis performed using Image J software (NIH, MD, USA).
compound,measurement,setting,value
VEGF,effect on fenestrations and lipid rafts,[1],depleted lipid rafts and increased fenestrations
Triton X-100,effect on fenestrations and lipid rafts,[1],decreased fenestrations and increased rafts
"CCCc1nn(C)c2c(=O)[nH]c(-c3cc(S(=O)(=O)N4CCN(C)CC4)ccc3OCC)nc12 [Sildenafil, sildenafil]",Diameter,"[2]; old mice, 0.3 μg/ml",138.91 ± 13.05 nm
same,Frequency,"[2]; old mice, 0.3 μg/ml",3.41 ± 0.68 no/area
same,Porosity,"[2]; old mice, 0.3 μg/ml",5.49 ± 1.33 %
same,Diameter,"[2]; old mice, 0.6 μg/ml",143.69 ± 10.80 nm
same,Frequency,"[2]; old mice, 0.6 μg/ml",2.88 ± 01.16 no/area
same,Porosity,"[2]; old mice, 0.6 μg/ml",4.97 ± 1.34 %
same,effect on porosity and fenestration frequency (summary in words),[2]; young and old LSECs,significant increases in porosity and fenestration frequency in both young and old LSECs
same,dose response on fenestration porosity (words),[2]; young mice,limited dosage range for positive effects on fenestration porosity
same,Diameter,"[2]; young mice, 0.3 μg/ml",126.34 ± 16.36 nm
same,Frequency,"[2]; young mice, 0.3 μg/ml",4.54 ± 0.34 no/area
same,Porosity,"[2]; young mice, 0.3 μg/ml",6.34 ± 2.09 %
same,Diameter,"[2]; young mice, 0.6 μg/ml",130.33 ± 16.02 nm
same,Frequency,"[2]; young mice, 0.6 μg/ml",3.56 ± 0.61 no/area
same,Porosity,"[2]; young mice, 0.6 μg/ml",4.92 ± 0.35%
same,dose response on fenestration porosity (words),"[2]; young mice, listed as sildenafil",did not promote greater changes in fenestration porosity or frequency
same,"fenestration numbers, fenestrated cell area and sieve plate formation","[2]; young mice, sildenafil 0.3 μg/ml, amlodipine 20 ng/ml, TRAIL 1 ng/ml",increased fenestration numbers and overall fenestrated cell area with some disruption to sieve plate formation
same,increase of intracellular cGMP,[3],3 fold
same,fenestration porosity,[4]; old mice,5.4±1.9%
same,change in fenestration diameter,"[4]; old mice, 7KC 4.5 μM",No changes
same,sieve plates and fenestration density on SEM images,[4]; young and old mice,maintained sieve plates and increased fenestration density
same,fenestration porosity,[4]; young mice,7.1±2.2%
same,change in fenestration diameter,[4]; young mice,No changes
same,actin changes with drug treatments (dSTORM),[5],"disordered, dense actin staining in the plasma membrane and clustering of actin within the cytoplasm; also recorded: Disordered actin structure; also recorded: Gap formations; also recorded: Individual fenestrations"
same,actin changes with drug treatments (dSTORM),[5]; listed as sildenafil,loss of smooth fibres encircling the cytoplasm
